Laboratory results reported in PubChem BioAssay (NCI).
“And” between values parts separate entries of the source, which are not always exact repeats. Equal values may be shown once.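 Compound exposure: 48 hours, 5 concentrations, 96-well plates. The concentration for 50% growth inhibition is given as GI50. TGI: concentration producing complete growth inhibition.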

Tests used:
Test in all cases: inhibition of tumour cell growth, NCI panel, 48 h
CCRF-CEM leukemia = test system: CCRF-CEM leukemia
HS 578T breast = test system: HS 578T breast
HT29 colon = test system: HT29 colon
M14 melanoma = test system: M14 melanoma
MDA-MB-231 breast = test system: MDA-MB-231 breast
NCI-H460 lung = test system: NCI-H460 lung
RXF 393 renal = test system: RXF 393 renal
SK-MEL-5 melanoma = test system: SK-MEL-5 melanoma
U251 CNS = test system: U251 CNS
UACC-62 melanoma = test system: UACC-62 melanoma

Compound	GI50 (CCRF-CEM leukemia) [µM]	TGI (CCRF-CEM leukemia)	GI50 (HS 578T breast) [µM]	TGI (HS 578T breast) [µM]	GI50 (HT29 colon) [µM]	TGI (HT29 colon) [µM]	GI50 (M14 melanoma) [µM]	TGI (M14 melanoma) [µM]	GI50 (MDA-MB-231 breast) [µM]	TGI (MDA-MB-231 breast) [µM]	GI50 (NCI-H460 lung) [µM]	TGI (NCI-H460 lung)	GI50 (RXF 393 renal) [µM]	TGI (RXF 393 renal) [µM]	GI50 (SK-MEL-5 melanoma) [µM]	TGI (SK-MEL-5 melanoma) [µM]	GI50 (U251 CNS) [µM]	TGI (U251 CNS) [µM]	GI50 (UACC-62 melanoma) [µM]	TGI (UACC-62 melanoma) [µM]
CN1CCN(CCCOc2cccc3nc(Nc4ccc(F)c(F)c4)ccc23)CC1	2.42	8.06 µM	4.73	11.8	0.616	1.35	0.68	1.49	0.937	3.38	2.37	8.9 µM	2.11	6.57	4.44	8.69	2.68	7.2	0.695	1.6
CCc1nc2cc(/C=C/C(=O)NO)ccc2c(=O)n1CCc1ccc(OC)cc1	3.17	> 100 µM	2.13	34.3	2.31	49.5	2.88	10.4	2.31	7.66	1.83	10.1 µM	1.74	4.74	1.96	5.09	1.99	4.87	1.59	4.33
CCCCN1C(=O)/C(=c2\sc3n(c2=O)C2C(NN=3)N(CC)C(=O)N2CC)c2ccccc21 (stereo unspecified)	1.81	> 100 µM	0.749	6.04			0.479	2.31	1.38	3.74			0.365	2.23			0.773	3.39	0.502	3.55
COc1cc(CN(c2ccc(C)cc2)C2OC(=O)c3ccccc32)cc(OC)c1OC (stereo unspecified)	0.375	> 100 µM	0.308	> 100	0.355	> 100	0.43	> 100	0.846	> 100	0.453	> 100 µM	0.141	0.52	0.271	1.76	0.397	> 100	0.582	> 100
COc1cccc(NC(=O)c2sc3nc4c(cc3c2N)C(O)CCC4)c1 (stereo unspecified)	0.22	> 100 µM	0.325	> 49.9	0.133	> 100	0.134	> 100	0.448	> 100	0.324	> 100 µM	0.278	37.7	0.311	8.29	0.244	> 51.6	0.15	> 100
CC1=C(C#N)C(/C=C(\Cl)c2ccc(F)cc2)C(C#N)=C(C)N1	> 100	> 100 µM	> 100	> 100	> 100	> 100	> 100	> 100	94.9	> 100	> 100	> 100 µM	> 100	> 100	> 100	> 100	> 100	> 100	81	> 100
OC(COc1ccccc1)CN1CCCCC1 (stereo unspecified)		> 100 µM		> 100		> 100		> 100		> 100		> 100 µM		> 100		> 100		> 100		> 100
CC[C@@H](O)C[C@H]1CCC[C@@]2(C[C@@H]3OC(=O)/C=C/[C@@](C)(O)[C@@H](O)[C@H](C)[C@@H](O)[C@H](OC4CCC(N(C)C)C(C)O4)[C@@H](O)[C@](C)(O)CCCCC/C=C/[C@@H]4CC(C)(C)O[C@@]4(O)C[C@H](O2)[C@H]3C)O1 (stereo partly specified)		> 100 µM		33.5		> 39.7		7.48		34.1		46.8 µM		34.6		2.04		36.8		21.8
COc1ccc(-c2nsc3c2NC(=O)CC3c2cccc(Cl)c2)cc1 (stereo unspecified)	2.44	> 100 µM	2.98	> 65.4	0.377	4.91	1.46	> 100	2.37	> 100	1.22	> 100 µM	2.57	33	1.38	51.6	2.33	> 100	2.31	> 100
COc1cc(Nc2ncnc(Nc3ccc4c(n3)NC(=O)C(C)(C)O4)n2)cc(OC)c1OC	3.73	> 100 µM	0.149	0.66	0.803	> 100	5.15	> 100	1.33	> 100	3.2	> 100 µM	0.148	0.622	> 100	> 100	1.5	> 100	2.36	> 100
COc1cc(-c2nccc3cc4c(cc23)OCO4)cc(OC)c1OC			1.64	9.57	2.33	> 100	3.36	23.2	16.1	> 100	3.83	> 100 µM	3.4	18.3	3.16	> 100	4.86	> 100	4.55	> 100
CCOc1ccc(N=Cc2ccnc3ccccc23)cc1		36.5 µM		> 100		> 100		80		> 75.9		> 100 µM		> 100		> 82.6		> 68.1		> 100
Cn1cncc1-c1c(F)cncc1NC(=O)c1c(N)nn2cc(F)cnc12	0.0723	22.8 µM	1.21	24.2	3.61	> 100	0.231	91.4	4.72	> 100	1.27	> 100 µM	0.278	16.8	1.23	2.48	4.48	> 100	2.22	6.9
CC/C(Cc1ccccc1)=C(/c1ccc(O)cc1)c1ccc(OCCN2CCCC2)cc1	1.83	4.16 µM	1.86	5.83	1.72	3.78	1.8	3.64	2.1	4.05	1.72	3.48 µM	1.56	3.13	1.7	3.08	1.69	3.19	2.03	4.12
CCN(CC)c1nc(NC2CCCCC2)c2nc(N(CC)CC)nc(NC3CCCCC3)c2n1		> 100 µM		> 100		> 100		> 100		> 100		> 100 µM		99.8		> 100		> 100		> 100
Cc1cccc(Nc2cc(Cl)nc(SCC(=O)O)n2)c1C		> 100 µM		> 100		> 100		> 100		> 100		> 100 µM		> 100		> 100		> 100		> 100
Cc1ccc(O)c(NC2=C(Cl)C(=O)N(Cc3ccccc3)C2=O)c1	4.54	29 µM	21.2	65.3	33.3	> 100	22.5	70.6	12.6	32.3	28.6	> 100 µM	15	39.3	21.1	40.7	19.8	43.3	17	36.8
CCOc1ccc(C(C)=O)cc1NC(=O)c1cccc(-c2nnn(CC)n2)c1	0.937	> 100 µM	0.996	> 100	0.325	> 100	0.396	> 100	1.62	58.5	0.423	> 100 µM	0.61	11.6	0.465	16.5	0.458	16.7	0.615	23.4
CNCCCNc1c2ccccc2nc2cccc([N+](=O)[O-])c12		0.0143 µM		0.00826		0.0185		0.00846		0.00522		0.00221 µM and 0.0103 µM		0.00217		0.00982		0.0519		0.00942
COc1ccc2nc3cccc([N+](=O)[O-])c3c(NCCNCCN(C)C)c2c1	0.0384	0.29 µM	0.175	0.558	0.0238	0.143	0.0734	0.208	0.658	4.17	0.0253	0.0967 µM	0.0342	0.122	0.0325	0.13	0.0376	0.404	0.121	0.3
COc1cc(NC(C)CCCNC(C)C)c2ncccc2c1OC (stereo unspecified)			4.74	60.7			> 100	> 100	> 100	> 100	34.1	> 100 µM	> 100	> 100	> 100	> 100	> 100	> 100	> 100	> 100
COc1ccc2[nH]c(C(=O)OCc3ccc4cccc(O)c4n3)cc2c1	0.148	1.11 µM	1.78	4.6	0.775	2.77	0.564	2.04	1.17	2.49	2.24	5.41 µM	1.06	2.31	1.76	3.18	1.67	3.15	1.31	2.6
CCc1nn2ncccc2c1-c1ccnc(NC2CC2)n1	> 25	> 25 µM	> 18.5	> 25	> 25	> 25	> 25	> 25	> 25	> 25	> 25	> 25 µM	> 23.4	> 25	> 25	> 25	> 25	> 25	> 25	> 25
CN(C)CCCCCNc1c2ccccc2nc2cccc([N+](=O)[O-])c12		> 0.1 µM and 0.0102 µM		0.0059	0.00502	0.00839		0.00312		0.00202	0.00145		0.00139	0.0032	0.00693	0.00335	0.0065	0.0251	0.00522	0.00404
CCN(CC)c1ccc(/C=N/NC(=O)CSc2nc3ccccc3c(=O)n2Cc2ccc(S(N)(=O)=O)cc2)c(O)c1	0.196	> 100 µM	2.11	> 100	3.01	> 100	0.452	10.9	0.643	> 100	0.425	> 100 µM	2.5	> 100	1.57	4.97	0.51	> 100	0.886	5.44
S=C(CSc1ccccc1)Nc1cccc2ccccc12				> 100		> 100		> 100		> 100		> 100 µM		> 100		36.6		> 100		> 100
COc1ccc(-c2nc(N)c(C#N)c3c2CCOc2c-3ccc3ccccc23)cc1	> 100	> 100 µM	31.8	76.6	52.7	> 100	66.6	> 100	10.6	33.8	16.3	> 100 µM	1.6	31.1			14	34.4		
O=C(CN(/C=C/C(=O)C(F)(F)F)c1ccccc1)c1ccc(Cl)cc1	21	49.9 µM	28.2	64.6	34.5	> 100			16.5	33.3	16.1	38.2 µM	17.1	42.6	16.4	31.6	15.7	29.5	13.1	25.8
